# According to patent US20010036955A1, “Method of inhibiting angiogenesis” (Genentech, Inc., priority 1998, published 2001):
# *1 amine or outer side, *2 acyl side, *3 side chain or, on linkers, in order; H or OH if unused. Where a SMILES comes first, the peptide text is derived from it. Bridges are numbered along the chain shown (N, C = ends). Roman numbers before positions name the chains, in order. [ ]: non-standard residue; d: D form. Actinocin(9to1) = Cc1c2oc3c(C)ccc(C(=O)[*:1])c3nc-2c(C(=O)[*:2])c(N)c1=O; NMeV = CN[C@H](C(=O)O)C(C)C; Sar = CNCC(=O)O
# What was measured:
# Type in all cases: cell-based, human
# [1] = test system: HUVEC tube formation; test: Endothelial tube assay (number of tubes, three-dimensional collagen gels); settings: for IC50: Homo sapiens, HUVEC in collagen gels with bFGF, VEGF and PMA, tubes counted at 48 hr, read-out: inhibition of tube formation, IC50; for inhibition of tube formation (FIG. 3B): at 100 μM; for formation of tube-like structures: endothelial cells in three-dimensional type I collagen lattice
# Method: In this model, endothelial cells are suspended in a three-dimensional collagen lattice of type I collagen and undergo rapid morphogenesis. Within 4 hr numerous vacuoles are observed in the majority of endothelial cells; at 24 hr the formation of tube-like structures can be observed and at 48 hr an interconnected network of tube-like structures is observed.
# Collagen gels were formed by mixing together ice-cold gelatin solution (10× M199, H2O, 0.53M NaHCO3, 200 mM L-glutamine, type I collagen, 0.1M NaOH, 100:27.2:50:10:750:62.5 by volume) and cells in 1× basal medium at a concentration of 3×10^6 cells/ml at a ratio of 4 volumes gelatin solution: 1 volume of cells. After gelation at 37 for 30 min, the gels were overlaid with IX basal medium consisting of M199 supplemented with 1%FBS, 1× ITS, 2 mM L-glutamine, 50 μg/ml ascorbic acid, 26.5 mM NaHCO3, 100 U/ml penicillin and 100 U/mil streptomycin supplemented with 40 ng/ml BFGF, 40 ng/ml VEGF and 80 nM phorbol myristate acetate (PMA). All drugs were added to the IX basal medium immediately after gelation. To quantitate tube formation, the number of tubes per high power (20× field) was determined 48 hr after addition of the basal medium Five independent fields separated by 100 μm optical sections were assessed for each well. Cytotoxicity was assessed using an XTT kit from Boehringer Mannheim (Indianapolis, Ind.).
# [2] = test system: HUVEC proliferation; test: Proliferation assay (BrdU incorporation); settings: type I collagen-coated surface, VEGF, bFGF and PMA
# Method: Cells were cultured in above medium in the presence of drugs or vehicle for 4 hr. 5 μl (100 μM) of 5′-bromo-2′-deoxyuridine (BrdU) was added in a final volume of 100 μl/well and cells were incubated for another 20 hr. BrdU incorporation was evaluated by an ELISA kit from Boehringer Mannheim (Indianapolis, Ind.).
# [3] = test system: HUVEC tube formation; test: Endothelial tube assay of Example 7 (average tube length, 3-D type I collagen gels)
# Method: Collagen gels were formed by mixing together ice-cold gelation solution (IOX M199, H2O, 0.53M NaHCO3, 200 mM L-glutamine, type I collagen, 0.1M NaOH, 100:27.2:50:10:750:62.5 by volume) and cells in 1× basal medium (see below) at a concentration of 3×10^6 cells/ml at a ratio of 4 volumes gelation solution: 1 volume of cells (18). After gelation at 37° C. for 30 min, the gels were overlaid with 1× basal medium consisting of M199 supplemented with […], 1× ITS, 2 mM L-glutamine, […] ascorbic acid, 26.5 mM NaHCO3, 100 U/ml penicillin and 100 U/ml streptomycin supplemented with 40 ng/ml bFGF, 40 ng/ml VEGF, 80 nM PMA or the combination of PMA (80 nM), bFGF and VEGF (40 ng/ml each). All drugs were added to the 1× basal medium immediately after gelation. To quantify tube formation, the average tube length was determined by measuring total tube length (long axis) in three consecutive layers of a low power (10×) field using Openlab software (Improvision Inc, England). Each layer was separated by 100 μm.
# [4] = test system: MMP-9 secretion; test: Zymographic assay of HUVEC conditioned media
# Method: (§1) The presence of gelatinases MMP-2 and -9 in conditioned media from cultured HUVEC in 3-D type I collagen gels was analyzed by zymography. Media from different treatments or from different time points were concentrated and then 10 μl aliquots were mixed with 2 × sample buffer without reducing agent or heating. Samples were loaded on a 10% polyacrilamide gel containing 0.1% gelatin (Novex, San Diego, Calif.) for electrophoresis. In addition to using regular molecular weight markers the MMP-2 and -9 zymographic standards (Chemicon, Temecula, Calif.) were used as standards for gelatinases. The gels were incubated for 30 min at room temperature in renaturing buffer and in developing buffer for overnight at 37° C., and then stained with 0.25% Coomassie brilliant blue (Sigma). Gelatinase activity was identified as lightly stained or clear bands following destaining.
# [5] = test system: MMP-2 secretion; test: Zymographic assay of HUVEC conditioned media
# Method: as §1
# [6] = test system: MMP-9 mRNA; test: Real time RT-PCR (Taqman) assay in HUVEC, Example 7; settings: for MMP-9 mRNA levels: 40 ng/ml, at 4 h and 24 h
# Method: (§2) Total RNA was extracted from HUVEC cultured in 3-D type I collagen gels for various times in 1× basal medium supplemented with 40 ng/ml bFGF, 40 ng/ml VEGF, […] PMA or the combination of PMA (80 nM), bFGF and VEGF (40 ng/mil each). […] For all mRNAs evaluated a sample of total RNA (100 ng) was added to a 50 μl RT-PCR reaction mixture according to the manufacturer's protocol (Roche Molecular Systems, Inc., Branchburg, N.J.). The thermal cycling conditions included 1 cycle at 48° C. for 30 min, 1 cycle at 95° C. for 10 min, 40 cycles at 95° C. for 15 s, at 60° C. for 1 min, and finally hold at 25° C. for 2 min. Standard curves for expression of each gene were generated by serial dilution of the total RNA isolated from U937 cells. […] Therefore, the relative mRNA expression of each gene was normalized to the level of GAPDH in the same RNA preparation.
# [7] = test system: MMP-2 mRNA; test: as above; settings: 100 μM; 24 h
# Method: as §2
# [8] = at concentrations of up to 100 μM
# [9] = PMA 0.8, 8, 80 and 800 nM for 24 h
compound,measurement,setting,value
"Cc1c(C)c2c(c(C)c1O)CCC(C)(COc1ccc(CC3SC(=O)NC3=O)cc1)O2 (single isomer, unassigned; (+)) [troglitazone, (+)-5-[[4-[(3,4-dihydro-6-hydroxy-2,5,7,8-tetramethyl-2H-1-benzopyran-2-yl)methoxy]phenyl]methyl]-2,4-thiazolidinedione]",IC50,[1],6.2 µM
CC1=C(/C=C/C(C)=C\C=C\C(C)=C\C(=O)O)C(C)(C)CCC1 [9-cis-retinoic acid],effect on tube formation,[1]; 9-cis-retinoic acid 30 μM alone,no significant effect
"CN(CCOc1ccc(CC2SC(=O)NC2=O)cc1)c1ccccn1 (stereo not shown) [BRL49653, 5-[4-[2-[N-methyl-N-(2-pyridyl)amino]ethoxy]benzyl]thiazolidine-2,4-dione]",IC50,"[2]; Homo sapiens, HUVEC, read-out: inhibition of endothelial cell (HUVEC) proliferation, IC50",15.7 µM
CCCc1c(OCCCCc2nnn[nH]2)ccc(C(C)=O)c1O [LY 171883],inhibition of tube formation (FIG. 3B),[1],do not inhibit
same,inhibition of tube formation,[1]; [8],did not significantly inhibit
CCCCC[C@H](O)/C=C/[C@H]1[C@H](O)CC(=O)[C@@H]1CCCCCCC(=O)O [PGE1],effect on HUVEC proliferation,[2],did not affect
CCCCC[C@H](O)/C=C/[C@H]1[C@H](O)CC(=O)[C@@H]1C/C=C\CCCC(=O)O [PGE2],effect on HUVEC proliferation,[2],did not affect
"CCCCCCCCCCCCCC(=O)O[C@@H]1[C@@H](C)[C@@]2(O)[C@@H](C=C(CO)C[C@]3(O)C(=O)C(C)=C[C@@H]23)[C@@H]2C(C)(C)[C@]12OC(C)=O [PMA, phorbol 12-myristate 13-acetate]",concentration giving maximal induction of tube formation,[3]; [9],80 nM
same,tube formation (average tube length),[3]; [9],dose-dependent increase
same,MMP-9 secretion into the culture medium,[4]; [9],dose-dependent stimulation
same,zymogen form of MMP-9 (92 kD) in culture supernatants,"[4]; gelatin zymography, PMA or PMA in combination with bFGF and VEGF",detected
same,MMP-2 secretion into the culture medium,[5]; [9],dose-dependent stimulation
same,active MMP-2 in supernatants compared with either growth factor alone,"[5]; gelatin zymography, PMA in the absence or presence of FGF and VEGF",more active MMP-2
same,increase of MMP-9 mRNA levels between 24 h and 4 h,"[6]; HUVEC in 3-D collagen gels, PMA 80 nM, bFGF and VEGF 40 ng/ml each",more than 2 fold
Cc1cccc(Nc2cc(Cl)nc(SCC(=O)O)n2)c1C [WY 14643],HUVEC tube formation,"[3]; 100 μM, 3-D collagen gels",do not inhibit
same,MMP-9 protein secretion,"[4]; 100 μM, 24 h",did not alter
same,MMP-2 protein secretion,"[5]; 100 μM, 24 h",did not alter
same,MMP-9 mRNA expression,"[6]; 100 μM, 24 h",did not alter
same,MMP-2 mRNA expression,[7],did not alter
same,inhibition of tube formation (FIG. 3B),[1],do not inhibit
same,inhibition of tube formation,[1]; [8],did not significantly inhibit
"Cc1c2oc3c(C)ccc(C(=O)N[C@@H]4C(=O)N[C@H](C(C)C)C(=O)N5CCC[C@H]5C(=O)N(C)CC(=O)N(C)[C@@H](C(C)C)C(=O)O[C@@H]4C)c3nc-2c(C(=O)N[C@@H]2C(=O)N[C@H](C(C)C)C(=O)N3CCC[C@H]3C(=O)N(C)CC(=O)N(C)[C@@H](C(C)C)C(=O)O[C@@H]2C)c(N)c1=O [actinomycin D] (I: T[dV]P[Sar][NMeV] / II: T[dV]P[Sar][NMeV]; ester I:1-I:C, II:1-II:C; linker I:N-II:N via Actinocin(9to1))",formation of tube-like structures,[1],completely block
CC1(COc2ccc(CC3SC(=O)NC3=O)cc2)CCCCC1 (stereo not shown) [ciglitizone],IC50,[1],2.7 µM
C[C@@H]1C[C@@H]([C@H](O)CC2CC(=O)NC(=O)C2)C(=O)[C@@H](C)C1 [cycloheximide],formation of tube-like structures,[1],completely block
CCCCCCCC/C=C\CCCCCCCCCCCC(=O)O [erucic acid],inhibition of tube formation,[1]; 200 μM,did not significantly inhibit
same,inhibition of tube formation (FIG. 3B),[1],do not inhibit
VEGF,MMP-9 mRNA levels,[6],at or below the limits of detection
bFGF: recombinant basic fibroblast growth factor,MMP-9 mRNA levels,[6],at or below the limits of detection
